From US20130310256A1, “HERBICIDAL COMPOSITIONS COMPRISING 4-AMINO-3-CHLORO-5-FLUORO-6-(4-CHLORO-2-FLUORO-3-METHOXYPHENYL) PYRIDINE-2-CARBOXYLIC ACID OR A DERIVATIVE THEREOF AND VLCFA AND LIPID SYNTHESIS INHIBITING HERBICIDES” (DOW AGROSCIENCES LLC, priority 2008, published 2013) come the findings set out here.

One assay relates to PAPRH. Description: Example III: post-emergence foliar-applied weed control in cereal crops, greenhouse. The format is in vivo, Papaver rhoeas L. The conditions noted are these: 21 DAA. As to the method: (§1) Seeds of the desired test plant species were planted in Sun Gro MetroMix® 306 planting mixture, which typically has a pH of 6.0 to 6.8 and an organic matter content of about 30 percent, in plastic pots with a surface area of 103.2 square centimeters (cm^2). When required to ensure good germination and healthy plants, a fungicide treatment and/or other chemical or physical treatment was applied. The plants were grown for 7-36 days in a greenhouse with an approximate 14 hour photoperiod which was maintained at about 18° C. during the day and 17° C. during the night. Nutrients and water were added on a regular basis and supplemental lighting was provided with overhead metal halide 1000-Watt lamps as necessary. The plants were employed for testing when they reached the second or third true leaf stage.
(§2) Treatments consisted of the benzyl ester of 4-amino-3-chloro-5-fluoro-6-(4-chloro-2-fluoro-3-methoxy-phenyl)pyridine-2-carboxylic acid (Compound A), formulated as an SC (suspension concentrate), and a second cereal herbicide alone and in combination.
(§3) Measured aliquots of the benzyl ester of 4-amino-3-chloro-5-fluoro-6-(4-chloro-2-fluoro-3-methoxy-phenyl)pyridine-2-carboxylic acid (Compound A) were placed in 25 milliliter (mL) glass vials and diluted in a volume of 1.25% (v/v) Agri-dex crop oil concentrated to obtain stock solutions. Compound requirements are based upon a 12 mL application volume at a rate of 187 liters per hectare (L/ha). Spray solutions of the second cereal herbicide and experimental compound mixtures were prepared by adding the stock solutions to the appropriate amount of dilution solution to form 12 mL spray solution with active ingredients in two- and three-way combinations. Formulated compounds were applied to the plant material with an overhead Mandel track sprayer equipped with an 8002E nozzle calibrated to deliver 187 L/ha over an application area of 0.503 square meters (m^2) at a spray height of 18 inches (46 cm) above average plant canopy. Control plants were sprayed in the same manner with the solvent blank.
(§4) The treated plants and control plants were placed in a greenhouse as described above and watered by sub-irrigation to prevent wash-off of the test compounds. After 20-22 days, the condition of the test plants as compared with that of the control plants was determined visually and scored on a scale of 0 to 100 percent where 0 corresponds to no injury and 100 corresponds to complete kill.
(§5) Colby's equation was used to determine the herbicidal effects expected from the mixtures (Colby, S. R. 1967. Calculation of the synergistic and antagonistic response of herbicide combinations. Weeds 15:20-22.).

For a further assay, the system named is IPOHE. In words: Example IV: pre-emergence soil-applied weed control, greenhouse. The class given is in vivo, Ipomoea hederacea Jacq. (ivyleaf morningglory). From the text:
(§6) Seeds or nutlets of the desired test plant species were planted in a soil matrix prepared by mixing a loam soil (32 percent silt, 23 percent clay, and 45 percent sand, with a pH of about 6.5 and an organic matter content of about 1.9 percent) and calcareous grit in an 80 to 20 ratio. The soil matrix was contained in plastic pots with a volume of 1 quart and a surface area of 83.6 square centimeters (cm^2).
(§7) Treatments consisted of the benzyl ester of 4-amino-3-chloro-5-fluoro-6-(4-chloro-2-fluoro-3-methoxy-phenyl)pyridine-2-carboxylic acid (compound A) formulated as an SC (suspension concentrate) and various herbicidal components alone and in combination. Forms of compound A were applied on an acid equivalent basis.
(§8) Other herbicidal components were applied on an active ingredient basis and included very long chain fatty acid (VLCFA) synthesis-inhibiting and fatty acid/lipid synthesis-inhibiting herbicides alachlor (technical grade material), dimethenamid-P formulated as Outlook®, and S-metolachlor formulated as Dual® II Magnum.
(§9) Treatment requirements were calculated based upon the rates being tested, the concentration of active ingredient or acid equivalent in the formulation, and a 12 mL application volume at a rate of 187 L/ha.
(§10) For treatments comprised of formulated compounds, measured amounts of compounds were placed individually in 25 mL glass vials and diluted in a volume of 1.25% (v/v) Agri-Dex® crop oil concentrate (COC) to obtain 12× stock solutions. […] Application solutions were prepared by adding an appropriate amount of each stock solution (e.g., 1 mL) and diluted to the appropriate final concentrations with the addition of 10 mL of an aqueous mixture of 1.25% (v/v) COC so that the final spray solutions contained 1.25% (v/v) COC.
For treatments comprised of technical compounds, weighed amounts can be placed individually in 25 mL glass vials and dissolved in a volume of 97:3 (v/v) acetone/DMSO to obtain 12× stock solutions. […] Application solutions can be prepared by adding an appropriate amount of each stock solution (e.g., 1 mL) and diluted to the appropriate final concentrations with the addition of 10 mL of an aqueous mixture of 1.5% (v/v) COC so that the final spray solutions contain 1.25% (v/v) COC. When technical materials are used, the concentrated stock solutions can be added to the spray solutions so that the final acetone and DMSO concentrations of the application solutions are 16.2% and 0.5%, respectively.
For treatments comprised of formulated and technical compounds, weighed amounts of the technical materials were placed individually in 25 mL glass vials and dissolved in a volume of 97:3 (v/v) acetone/DMSO to obtain 12× stock solutions, and measured amounts of the formulated compounds were placed individually in 25 mL glass vials and diluted in a volume of 1.5% (v/v) COC or water to obtain 12× stock solutions. […] Application solutions were prepared by adding an appropriate amount of each stock solution (e.g., 1 mL) and diluted to the appropriate final concentrations with the addition of an appropriate amount of an aqueous mixture of 1.5% (v/v) COC so that the final spray solutions contained 1.25% (v/v) COC. As required, additional water and/or 97:3 (v/v) acetone/DMSO was added to individual application solutions so that the final acetone and DMSO concentrations of the application solutions being compared were 8.1% and 0.25%, respectively.
All stock solutions and applications solutions were visually inspected for compound compatibility prior to application. Spray solutions were applied to the soil with an overhead Mandel track sprayer equipped with a 8002E nozzles calibrated to deliver 187 L/ha over an application area of 0.503 m^2 at a spray height of 18 inches (46 cm) above average pot height. Control pots were sprayed in the same manner with the solvent blank.
The treated and control pots were placed in a greenhouse and top watered as needed. […]

The test system of a further assay is CHEAL. In words: Example III: post-emergence foliar-applied weed control in cereal crops, greenhouse. The format is in vivo, Chenopodium album L. Conditions: 21 DAA. The method, then: as §1, §2, §3, §4, §5
A further assay has as its system XANST. Description: Example IV: pre-emergence soil-applied weed control, greenhouse. The conditions noted are these: 32 gae/ha, 29 DAA. The format is in vivo, Xanthium strumarium L. (common cocklebur).
Text: as §6, §7, §8, §9, §10
For treatments comprised of technical compounds, weighed amounts can be placed individually in 25 mL glass vials and dissolved in a volume of 97:3 (v/v) acetone/DMSO to obtain 12× stock solutions. […] Application solutions can be prepared by adding an appropriate amount of each stock solution (e.g., 1 mL) and diluted to the appropriate final concentrations with the addition of 10 mL of an aqueous mixture of 1.5% (v/v) COC so that the final spray solutions contain 1.25% (v/v) COC. […]
For treatments comprised of formulated and technical compounds, weighed amounts of the technical materials were placed individually in 25 mL glass vials and dissolved in a volume of 97:3 (v/v) acetone/DMSO to obtain 12× stock solutions, and measured amounts of the formulated compounds were placed individually in 25 mL glass vials and diluted in a volume of 1.5% (v/v) COC or water to obtain 12× stock solutions. […]

The next assay has as its system SASKR. Description: Example III: post-emergence foliar-applied weed control in cereal crops, greenhouse. The format is in vivo, Salsola tragus L. The conditions noted are these: 21 DAA. As to the method: as §1, §2, §3, §4, §5
The next assay relates to STEME. The assay is described as above. The format is in vivo, Stellaria media (L.) Vill. The conditions noted are these: 21 DAA. As to the method:
as §1, §2, §3, §4, §5

For the molecule `COc1c(Cl)ccc(-c2nc(C(=O)OCc3ccccc3)c(Cl)c(N)c2F)c1F` [Compound A Benzyl Ester, benzyl ester of 4-amino-3-chloro-5-fluoro-6-(4-chloro-2-fluoro-3-methoxy-phenyl)pyridine-2-carboxylic acid], the “Visual Weed Control PAPRH Obs” value in the assay on PAPRH (2.5 gai/ha) was found to be 48%; in the assay with PAPRH (5 gai/ha) it was 28%; in the assay on PAPRH (10 gai/ha), 35%. Moreover, the “Visual Weed Control IPOHE Obs” value in the assay with IPOHE (16 gae/ha, 28 DAA) was 13%; in the assay with IPOHE (32 gae/ha, 27 DAA), 28%; in the assay on IPOHE (32 gae/ha, 28 DAA), 23%. Also, the entries for the “Visual Weed Control CHEAL Obs” value in the assay on CHEAL (2.5 gai/ha) and in the assay on CHEAL (5 gai/ha) were 50% and 58%, respectively. Besides, the “Visual Weed Control XANST Obs” value with XANST came out at 5%. The “Visual Weed Control SASKR Obs” value in the assay on SASKR (2.5 gai/ha) was determined as 15%; with SASKR (5 gai/ha) it was 50%; with SASKR (10 gai/ha), 67%. Moreover, the “Visual Weed Control STEME Obs” value with STEME (2.5 gai/ha) stood at 25%; in the assay on STEME (5 gai/ha), 25%; with STEME (10 gai/ha), 27%.
